From patent US7691816B2, “Pharmaceutical compositions” (Renovo Ltd., priority 2005, dated 2010)

Assay: Localised pain and erythema associated with intradermal injection of formulations
Assay type: in vivo, human
Experimental: A study was conducted to evaluate localised pain and erythema associated with intradermal injection of medicaments manufactured in accordance with the invention and the pain and erythema associated with control injections of prior art compositions.
Experimental injectable solutions were prepared as described above.
Briefly, a volume of 100 μL of each formulation described above was injected intradermally into the inner aspect of the upper arms of a volunteer. In addition to the DS11 control described above, a solution of the known local anaesthetic lignocaine was also used as a further control. The pain on injection and erythema were categorised by the volunteer and a clinician.
Both the volunteer and the clinician undertook these evaluations. The extent of pain or erythema associated with the different formulations used was rated based upon the following categories (listed in ascending severity): […]

[1] = Volunteer 1, 100 μL intradermal, inner aspect of upper arm
[2] = Volunteer 2, 100 μL intradermal, inner aspect of upper arm

| Pain (in vivo) | Compound | Erythema (Table 4, summary of Table 3) | Pain (Table 4, summary of Table 3) | Erythema [1] | Pain [1] | Erythema [2] | Pain [2] |
| --- | --- | --- | --- | --- | --- | --- | --- |
| – | CCN(CC)CC(=O)Nc1c(C)cccc1C [Lignocaine, lignocaine] | Marked | Marked | Marked | Marked | Marked | Marked |
| None | Glucose | – | – | – | – | – | – |
